Assays:
[1] = target: N-WASP (Homo sapiens, UniProt O00401); conditions: Peterson et al., 2004; cited from earlier work
[2] = tested on: intracellular levels of ATP; conditions: non-specific effects; cited from earlier work
[3] = target: T1, WASP (Homo sapiens, UniProt P42768); conditions: cited from earlier work
T1 sequence (P42768 1-502): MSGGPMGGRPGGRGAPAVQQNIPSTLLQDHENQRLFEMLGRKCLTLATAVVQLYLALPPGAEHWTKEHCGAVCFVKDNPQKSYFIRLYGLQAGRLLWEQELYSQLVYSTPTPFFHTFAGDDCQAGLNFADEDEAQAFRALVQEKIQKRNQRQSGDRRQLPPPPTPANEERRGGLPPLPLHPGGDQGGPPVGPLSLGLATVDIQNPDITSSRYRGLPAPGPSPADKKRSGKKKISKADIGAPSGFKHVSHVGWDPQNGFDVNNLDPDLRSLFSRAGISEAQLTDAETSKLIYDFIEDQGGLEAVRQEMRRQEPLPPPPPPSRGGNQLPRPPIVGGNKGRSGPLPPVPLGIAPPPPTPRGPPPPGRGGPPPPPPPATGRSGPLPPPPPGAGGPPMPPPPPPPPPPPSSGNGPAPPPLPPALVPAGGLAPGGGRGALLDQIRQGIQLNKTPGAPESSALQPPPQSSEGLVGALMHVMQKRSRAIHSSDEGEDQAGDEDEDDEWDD

[4] = tested on: MTLn3; test: 3D collagen invasion assay of MTLn3 carcinoma cells (macrophage co-culture or BMM conditioned media); format: cell-based; conditions: KO CM with exogenously added 25 nM EGF (FIG. 2C)
Description: FIG. 1A-1D. WASP is required for macrophage-dependent breast carcinoma cell invasion. (A) Schematic illustration of the 3D invasion assay. (B) X-Z reconstruction of confocal images of 3D invasion assay using celltracker green labeled carcinoma cells (MTLn3) cultured on their own or co-cultured with celltracker red labeled primary bone marrow derived macrophages (BMM) isolated from either wild type (WT) or WASP knockout (WASP−/−) mice. Dotted line indicates the arbitrary threshold for measuring invasion at 20 μm (˜2 cell diameter). Quantification of cell tracker dye labeled (C) macrophage and (D) MTLn3 invasion. Fluorescence from cells was recorded at 5 μm step size. Collagen invasion is plotted as fraction of cells where fluorescence intensities above 20 μm are divided by total fluorescence from the entire stack (n=3 mice per genotype, age and sex matched). […]
FIG. 2A-2C. […] (A) Quantification of the MTLn3 invasion by MTLn3 cells alone, in response to wildtype BMM conditioned media (WT-CM) or conditioned media from WASP deficient mice (+KO CM) p<** 0.01 ***0.001 compared to wild-type macrophage conditioned media (WT CM). (B) Quantification of the MTLn3 invasion by MTLn3 cells alone, with wildtype BMM conditioned media (WT-CM) alone or with control IgG (Ctrl IgG) or with two different neutralizing anti-EGF antibodies generated in goat or rabbit (nEGF-G or nEGF-R). […]

[5] = tested on: MTLn3 tumor; test: in vivo needle invasion assay; parameters: species or system mice; conditions: needle with EGF vs buffer, 4 hours (FIG. 6)
Protocol: FIG. 6A-6B. WASP is required for macrophage dependent carcinoma cell invasion in vivo. (A) Schematic illustration of in vivo invasion assay. (B) Quantification of the number of cells collected into the needle after 4 hours with EGF or without EGF (buffer) from wildtype, WASP+/− or WASP−/− mice bearing MTLn3 tumor. Cell counting was performed single blinded where the counter was not aware of the genotype of the mice. n=4 independent WT and 4 WASp−/− mice used) Error bars signify SEM. ** p<0.01 compared to buffer and EGF needle in WASP−/− mice.
The presence and absence of WASP in tumors was further characterized to determine the precise defect in the absence of WASP that led to reduced metastasis. […] Carcinoma cell invasiveness in the tumor was monitored and analyzed using a well established in vivo needle invasion assay that mimics the invasion of carcinoma cells into a blood vessel, according to Wyckoff et al. (Wyckoff, Segall et al. 2000). […] Additionally, a reduction was also observed in the motility of carcinoma cells in the tumors of WASP deficient mice as compared with control mice (FIG. 7).

N-WASP, sequence (O00401 whole entry, species assumed): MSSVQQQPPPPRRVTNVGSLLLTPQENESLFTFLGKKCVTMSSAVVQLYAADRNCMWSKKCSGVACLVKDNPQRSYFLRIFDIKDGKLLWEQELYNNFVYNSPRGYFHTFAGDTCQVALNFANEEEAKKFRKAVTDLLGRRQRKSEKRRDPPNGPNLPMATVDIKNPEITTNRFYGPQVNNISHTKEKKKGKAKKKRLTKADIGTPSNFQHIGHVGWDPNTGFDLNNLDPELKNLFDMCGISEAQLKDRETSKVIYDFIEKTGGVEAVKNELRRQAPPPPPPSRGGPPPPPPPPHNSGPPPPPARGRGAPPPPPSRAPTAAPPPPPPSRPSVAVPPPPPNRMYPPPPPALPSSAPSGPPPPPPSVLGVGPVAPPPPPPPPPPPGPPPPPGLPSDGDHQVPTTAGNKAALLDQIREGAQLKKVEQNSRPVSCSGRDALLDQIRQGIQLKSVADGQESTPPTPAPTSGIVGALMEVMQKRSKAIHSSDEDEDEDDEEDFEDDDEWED

For `CN(C)C[C@H](O)Cn1c2ccc(Br)cc2c2cc(Br)ccc21` (racemic) [wiskostatin], the “inhibition of N-WASP” value [1] is listed as “inhibitor of N-WASP”, the “intracellular levels of ATP” value [2] is listed as “lowers the intracellular levels of ATP” and the “inhibition of WASP” value [3] is listed as “also inhibits WASP”.
In the case of “EGF: epidermal growth factor, carcinoma cell chemoattractant (NSDSECPLSHDGYCLHDGVCMYIEALDKYACNCVVGYIGERCQYRDLKWWELR; UniProt P01133 971-1023, looked up)”, the “MTLn3 invasion with WASP deficient BMM conditioned media” value [4] is reported as “restored carcinoma cell invasion”, the “number of carcinoma cells collected into needle” value ([5]; tumor bearing WASP-deficient mice) is reported as “no difference in the number of cells collected” and the “number of carcinoma cells collected into needle” value ([5]; tumor bearing control mice) is reported as “significantly enhanced the number of carcinoma cells collected into a needle”.
